Measured values reported in ChEMBL document CHEMBL5543162, “Discovery of a Novel Orally Bioavailable FLT3-PROTAC Degrader for Efficient Treatment of Acute Myeloid Leukemia and Overcoming Resistance of FLT3 Inhibitors” (J Med Chem, 2024).
One block for each compound: values may come before it. Activity calls are given as the source filed them. The rule behind the calls is not given here.

Key:
MV4-11 [1] = experiment: Antiproliferative activity against human MV4-11 cells expressing FLT3-ITD mutant incubated for 48 hrs by CCK8 assay; format: functional, cell-based; conditions: MV4-11, 48 h
MOLM-13 [2] = experiment: Antiproliferative activity against human MOLM-13 cells incubated for 48 hrs by CCK8 assay; format: functional, cell-based; conditions: MOLM-13, 48 h
MOLM-13 [3] = experiment: Antiproliferative activity against Quizartinib-resistant human MOLM-13 cells incubated for 48 hrs by CCK8 assay; format: functional, cell-based; conditions: MOLM-13, 48 h
MV4-11 [4] = experiment: Antitumor activity against human MV4-11 cells xenografted in nu/nu mouse at 1.6 mg/kg, po administered daily for 2 weeks relative to control; format: functional; conditions: MV4-11, 336 h, read-out: TGI
[5] = Stability in human liver microsomes assessed as half life; format: ADME, Microsome
[6] = Antiproliferative activity against human HL-60 cells expressing wild-type FLT3 incubated for 48 hrs by CCK8 assay; format: toxicity, cell-based
[7] = Stability in dog liver microsomes assessed as hepatic clearance; format: ADME, Canis lupus familiaris, Microsome
MOLM-13 [8] = experiment: Antiproliferative activity against Sunitinib-resistant human MOLM-13 cells incubated for 48 hrs by CCK8 assay; format: functional, cell-based; conditions: MOLM-13, 48 h
[9] = Antiproliferative activity against human THP-1 cells expressing wild-type FLT3 incubated for 48 hrs by CCK8 assay; format: toxicity, cell-based
[10] = Stability in human liver microsomes assessed as hepatic clearance; format: ADME, Microsome
[11] = Stability in monkey liver microsomes assessed as half life; format: ADME, Microsome; conditions: chlorocebus aethiops
[12] = Stability in monkey liver microsomes assessed as intrinsic clearance; format: ADME, Microsome; conditions: chlorocebus aethiops, read-out: CLH
[13] = Stability in mouse liver microsomes assessed as half life; format: ADME, Microsome
[14] = Antiproliferative activity against human U-937 cells expressing wild-type FLT3 incubated for 48 hrs by CCK8 assay; format: toxicity, cell-based
[15] = Stability in human liver microsomes assessed as intrinsic clearance; format: ADME, Microsome; conditions: read-out: CLH
[16] = Stability in monkey liver microsomes assessed as hepatic clearance; format: ADME, Microsome; conditions: chlorocebus aethiops
[17] = Stability in rat liver microsomes assessed as intrinsic clearance; format: ADME, Microsome; conditions: read-out: CLH
[18] = Stability in dog liver microsomes assessed as intrinsic clearance; format: ADME, Canis lupus familiaris, Microsome; conditions: read-out: CLH
[19] = Stability in rat liver microsomes assessed as half life; format: ADME, Microsome
[20] = Stability in mouse liver microsomes assessed as hepatic clearance; format: ADME, Microsome
[21] = Stability in rat liver microsomes assessed as hepatic clearance; format: ADME, Microsome
[22] = Stability in mouse liver microsomes assessed as intrinsic clearance; format: ADME, Microsome; conditions: read-out: CLH
[23] = Stability in dog liver microsomes assessed as half life; format: ADME, Canis lupus familiaris, Microsome
MV4-11 [24] = experiment: Induction of apoptosis in human MV4-11 cells at 50 nM incubated for 24 hrs by Annexin V-FITC/PI staining based flow cytometry; format: functional, cell-based
[25] = test system: Protein cereblon/Receptor-type tyrosine-protein kinase FLT3 (Homo sapiens), P36888+Q96SW2 [UNDEFINED MUTATION]; experiment: PROTAC activity at CRBN/FLT3-ITD mutant in human MV4-11 cells assessed as protein degradation at 100 nM incubated for 8 hrs by Western blot analysis; format: cell-based
Sequence of Protein cereblon/Receptor-type tyrosine-protein kinase FLT3 (Homo sapiens), P36888+Q96SW2 [UNDEFINED MUTATION] (P36888 whole entry, looked up, change not shown): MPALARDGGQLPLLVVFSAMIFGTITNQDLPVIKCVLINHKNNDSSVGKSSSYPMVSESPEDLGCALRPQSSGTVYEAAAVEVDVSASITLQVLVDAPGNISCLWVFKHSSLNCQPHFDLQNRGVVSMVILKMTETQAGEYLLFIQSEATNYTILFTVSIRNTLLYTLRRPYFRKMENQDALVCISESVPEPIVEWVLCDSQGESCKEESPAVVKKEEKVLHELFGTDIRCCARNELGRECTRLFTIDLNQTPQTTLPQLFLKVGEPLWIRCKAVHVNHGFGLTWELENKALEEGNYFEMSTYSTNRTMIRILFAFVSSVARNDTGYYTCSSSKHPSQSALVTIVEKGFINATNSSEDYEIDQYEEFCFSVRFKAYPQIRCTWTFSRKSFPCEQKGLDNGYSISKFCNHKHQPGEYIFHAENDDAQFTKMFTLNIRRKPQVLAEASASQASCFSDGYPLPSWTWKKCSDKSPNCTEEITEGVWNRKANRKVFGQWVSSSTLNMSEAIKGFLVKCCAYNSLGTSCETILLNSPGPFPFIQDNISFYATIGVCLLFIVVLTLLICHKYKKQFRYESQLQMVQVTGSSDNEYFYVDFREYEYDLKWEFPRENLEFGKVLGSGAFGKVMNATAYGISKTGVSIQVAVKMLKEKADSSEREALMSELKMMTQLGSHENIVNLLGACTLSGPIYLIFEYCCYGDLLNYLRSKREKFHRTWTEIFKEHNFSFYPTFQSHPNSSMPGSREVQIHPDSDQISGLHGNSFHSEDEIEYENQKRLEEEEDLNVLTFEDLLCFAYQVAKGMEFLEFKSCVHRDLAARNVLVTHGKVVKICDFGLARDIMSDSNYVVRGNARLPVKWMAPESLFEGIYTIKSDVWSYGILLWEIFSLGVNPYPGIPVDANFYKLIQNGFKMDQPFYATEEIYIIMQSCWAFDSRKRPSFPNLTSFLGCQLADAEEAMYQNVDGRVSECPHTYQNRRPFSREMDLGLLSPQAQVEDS
Sequence of Protein cereblon/Receptor-type tyrosine-protein kinase FLT3 (Homo sapiens), P36888+Q96SW2 [UNDEFINED MUTATION] (Q96SW2 whole entry, looked up, change not shown): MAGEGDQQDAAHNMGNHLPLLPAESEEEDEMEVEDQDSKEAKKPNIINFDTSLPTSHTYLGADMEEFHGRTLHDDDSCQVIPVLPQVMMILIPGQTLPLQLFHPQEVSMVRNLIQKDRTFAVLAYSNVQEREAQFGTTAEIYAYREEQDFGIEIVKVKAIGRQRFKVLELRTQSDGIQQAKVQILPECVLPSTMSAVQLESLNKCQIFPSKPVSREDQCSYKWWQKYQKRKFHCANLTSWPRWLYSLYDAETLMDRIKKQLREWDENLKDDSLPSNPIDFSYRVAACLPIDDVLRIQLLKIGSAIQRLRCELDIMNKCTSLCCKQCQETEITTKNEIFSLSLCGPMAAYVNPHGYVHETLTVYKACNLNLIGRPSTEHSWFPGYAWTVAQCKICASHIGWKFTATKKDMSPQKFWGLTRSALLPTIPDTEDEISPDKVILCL

[26] = test system: Protein cereblon/Receptor-type tyrosine-protein kinase FLT3 (Homo sapiens), P36888+Q96SW2 [UNDEFINED MUTATION]; experiment: PROTAC activity at CRBN/FLT3-ITD mutant in human MOLM-13 cells assessed as protein degradation at 100 nM incubated for 8 hrs by Western blot analysis; format: cell-based
MOLM-13 [27] = experiment: Induction of apoptosis in human MOLM-13 cells at 50 nM incubated for 24 hrs by Annexin V-FITC/PI staining based flow cytometry; format: functional, cell-based

Compound: Cc1ncsc1-c1ccc(CNC(=O)[C@H]2C[C@H](O)CN2C(=O)[C@@H](NC(=O)CCCCCCCCC(=O)N2CCN(CC(=O)Nc3c[nH]c(/C=C4\C(=O)Nc5ccc(F)cc54)c3C)CC2)C(C)(C)C)cc1
IC50 (MV4-11 [1]): 410 nM
IC50 (MOLM-13 [2]): > 1000 nM

Compound: Cc1c(NC(=O)CN2CCN(CC3CN(c4ccc5c(c4)C(=O)N(C4CCC(=O)NC4=O)C5=O)C3)CC2)c[nH]c1/C=C1\C(=O)Nc2ccc(F)cc21 (stereo not drawn)
IC50 (MV4-11 [1]): 126 nM
IC50 (MOLM-13 [2]): 333 nM

Compound: Cc1ncsc1-c1ccc(CNC(=O)[C@H]2C[C@H](O)CN2C(=O)[C@@H](NC(=O)CCCCCCC(=O)N2CCN(CC(=O)Nc3c[nH]c(/C=C4\C(=O)Nc5ccc(F)cc54)c3C)CC2)C(C)(C)C)cc1
IC50 (MV4-11 [1]): 262 nM
IC50 (MOLM-13 [2]): 399 nM

Compound: Cc1c(NC(=O)CN2CCN(C3CC4(CCN(c5ccc6c(c5)C(=O)N(C5CCC(=O)NC5=O)C6=O)CC4)C3)CC2)c[nH]c1/C=C1\C(=O)Nc2ccc(F)cc21 (stereo not drawn)
IC50 (MV4-11 [1]): 51.7 nM
IC50 (MOLM-13 [2]): 249 nM

Compound: Cc1ncsc1-c1ccc(CNC(=O)[C@@H]2C[C@@H](O)CN2C(=O)[C@@H](NC(=O)CCCCC(=O)N2CCN(CC(=O)Nc3c[nH]c(/C=C4\C(=O)Nc5ccc(F)cc54)c3C)CC2)C(C)(C)C)cc1
IC50 (MV4-11 [1]): 360 nM
IC50 (MOLM-13 [2]): > 1000 nM

Compound: Cc1c(NC(=O)CCN2CCCC2)c[nH]c1/C=C1\C(=O)Nc2ccc(F)cc21
IC50 (MOLM-13 [3]): 1520 nM
inhibition in vivo at 1.6 mg/kg (MV4-11 [4]): 39.8%
half-life [5]: 3.21 h
IC50 at 48 h [6]: 6450 nM
CLhep predicted [7]: 12.9 mL/min/kg
IC50 (MOLM-13 [8]): 811 nM
IC50 at 48 h [9]: 1500 nM
CLhep predicted [10]: 5.93 mL/min/kg
half-life [11]: 0.983 h
CLint scaled [12]: 31.7 mL/min/kg
IC50 (MV4-11 [1]): 24 nM
half-life [13]: 0.758 h
IC50 at 48 h [14]: 2780 nM
CLint scaled [15]: 8.32 mL/min/kg
CLhep predicted [16]: 18.4 mL/min/kg
CLint scaled [17]: 41 mL/min/kg
CLint scaled [18]: 22.1 mL/min/kg
half-life [19]: 1.01 h
CLhep predicted [20]: 51.4 mL/min/kg
CLhep predicted [21]: 27.7 mL/min/kg
CLint scaled [22]: 120 mL/min/kg
half-life [23]: 1.5 h

Compound: Cc1c(NC(=O)CN2CCN(CC3CCN(c4ccc5c(c4)C(=O)N(C4CCC(=O)N(C)C4=O)C5=O)CC3)CC2)c[nH]c1/C=C1\C(=O)Nc2ccc(F)cc21 (stereo not drawn)
Activity (MV4-11 [24]): inactive
Activity [25]: inactive
Activity [26]: inactive
Activity (MOLM-13 [27]): inactive

Compound: CC(C)(C)c1cc(NC(=O)Nc2ccc(-c3cn4c(n3)sc3cc(OCCN5CCOCC5)ccc34)cc2)no1 [QUIZARTINIB]
IC50 (MOLM-13 [3]): 40900 nM
IC50 (MOLM-13 [8]): 1230 nM
IC50 (MV4-11 [1]): 33.7 nM
IC50 (MOLM-13 [2]): 39.4 nM

Now from value to compound:

IC50 (MV4-11 [1]): 214 nM
IC50 (MOLM-13 [2]): 233 nM
Compound: Cc1c(NC(=O)CN2CCN(C(=O)CCCCCCCCC(=O)NCCNc3cccc4c3C(=O)N(C3CCC(=O)NC3=O)C4=O)CC2)c[nH]c1/C=C1\C(=O)Nc2ccc(F)cc21 (stereo not drawn)

IC50 (MV4-11 [1]): 396 nM
IC50 (MOLM-13 [2]): 445 nM
Compound: Cc1c(NC(=O)CN2CCN(C(=O)CCOCCOCCOCCNc3cccc4c3C(=O)N(C3CCC(=O)NC3=O)C4=O)CC2)c[nH]c1/C=C1\C(=O)Nc2ccc(F)cc21 (stereo not drawn)

IC50 (MV4-11 [1]): 141 nM
IC50 (MOLM-13 [2]): 206 nM
Compound: Cc1c(NC(=O)CN2CCN(C(=O)CCCCCCNc3cccc4c3C(=O)N(C3CCC(=O)NC3=O)C4=O)CC2)c[nH]c1/C=C1\C(=O)Nc2ccc(F)cc21 (stereo not drawn)

IC50 (MV4-11 [1]): 91.4 nM
IC50 (MOLM-13 [2]): 220 nM
Compound: Cc1c(NC(=O)CN2CCN(C(=O)CCCCCCCNc3cccc4c3C(=O)N(C3CCC(=O)NC3=O)C4=O)CC2)c[nH]c1/C=C1\C(=O)Nc2ccc(F)cc21 (stereo not drawn)

IC50 (MV4-11 [1]): 326 nM
IC50 (MOLM-13 [2]): 542 nM
Compound: Cc1c(NC(=O)CN2CCN(C(=O)CCOCCNc3cccc4c3C(=O)N(C3CCC(=O)NC3=O)C4=O)CC2)c[nH]c1/C=C1\C(=O)Nc2ccc(F)cc21 (stereo not drawn)

IC50 (MV4-11 [1]): 193 nM
IC50 (MOLM-13 [2]): 273 nM
Compound: Cc1c(NC(=O)CN2CCN(C(=O)CCCCCCCCCCNc3cccc4c3C(=O)N(C3CCC(=O)NC3=O)C4=O)CC2)c[nH]c1/C=C1\C(=O)Nc2ccc(F)cc21 (stereo not drawn)

IC50 (MV4-11 [1]): 170 nM
IC50 (MOLM-13 [2]): 367 nM
Compound: Cc1c(NC(=O)CN2CCN(C3CN(c4ccc5c(c4)C(=O)N(C4CCC(=O)NC4=O)C5=O)C3)CC2)c[nH]c1/C=C1\C(=O)Nc2ccc(F)cc21 (stereo not drawn)

IC50 (MV4-11 [1]): 812 nM
IC50 (MOLM-13 [2]): > 1000 nM
Compound: Cc1c(NC(=O)CN2CCN(C(=O)CCOCCNC(=O)COc3cccc4c3C(=O)N(C3CCC(=O)NC3=O)C4=O)CC2)c[nH]c1/C=C1\C(=O)Nc2ccc(F)cc21 (stereo not drawn)

IC50 (MV4-11 [1]): 388 nM
IC50 (MOLM-13 [2]): > 1000 nM
Compound: Cc1c(NC(=O)CN2CCN(C(=O)CCOCCOCCNC(=O)COc3cccc4c3C(=O)N(C3CCC(=O)NC3=O)C4=O)CC2)c[nH]c1/C=C1\C(=O)Nc2ccc(F)cc21 (stereo not drawn)
